The record followed here is ChEMBL document CHEMBL1144832, “An efficient one-pot synthesis of tethered cyclohexadiene enaminonitriles from methyl-ketones: an effective route to quinazolines” (Bioorg Med Chem Lett, 2008).

The MIC is the lowest concentration that inhibits growth of the organism. Broadly, the CC50 is the concentration that lowers cell viability or growth by half. A lower CC50 goes with harm at low concentration. For orientation: IC50 means the point on the concentration scale where inhibition reaches its midpoint. Read a high IC50 as lower potency.

A value given as a limit tells only on which side of the number the result lay.

One assay deals with Escherichia coli. The assay is described as follows: Antimicrobial activity against Escherichia coli. Type of assay: functional.
For another assay, the system named is Bacillus subtilis. Put plainly: Antimicrobial activity against Bacillus subtilis. It is filed as functional.
A further assay has as its system Saccharomyces cerevisiae. The assay is described as follows: Antimicrobial activity against Saccharomyces cerevisiae. Type of assay: functional.
In a further assay the test system is Jurkat. Put plainly: Cytotoxicity against human Jurkat cells. Type of assay: functional, cell-based.
The next assay relates to ScN2a. Put plainly: Cytotoxicity against mouse ScN2a cells. It is filed as functional.

Turning to `CC1=C(/C=C/C2=CC(N)=C(C#N)C(C)(/C=C/C3=C(C)CCCC3(C)C)C2)C(C)(C)CCC1` (stereo unspecified), the minimum inhibitory concentration (MIC) in the assay with Escherichia coli was at least 189 µM; in the assay with Bacillus subtilis, at least 163 µM; with Saccharomyces cerevisiae, at least 197 µM. In the assay with Jurkat, this molecule registered a cytotoxic concentration (CC50) of 12.7 µM.

In the case of `CC1(c2ccc3ccccc3c2)CC(c2ccc3ccccc3c2)=CC(N)=C1C#N` (stereo unspecified), the MIC against Escherichia coli is at least 189 µM; with Bacillus subtilis it was at least 163 µM; against Saccharomyces cerevisiae, at least 197 µM. Also, in the assay with Jurkat, 19 µM corresponded to half-maximal inhibition (IC50).

As for `CC1=C(/C=C/C2=Cc3ncnc(N)c3C(C)(/C=C/C3=C(C)CCCC3(C)C)C2)C(C)(C)CCC1` (stereo unspecified), the minimal inhibitory concentration (MIC) against Escherichia coli was at least 189 µM; in the assay with Bacillus subtilis, at least 163 µM; against Saccharomyces cerevisiae, at least 197 µM. Besides, in the assay on Jurkat, the midpoint of cytotoxicity, the CC50, lay at 12.8 µM.

In the case of `CC1(c2ccccc2)CC(c2ccccc2)=CC(N)=C1C#N` (stereo unspecified), the MIC is at least 189 µM against Escherichia coli, at least 163 µM in the assay with Bacillus subtilis and at least 197 µM with Saccharomyces cerevisiae. In the assay on Jurkat, the half-maximal cytotoxic concentration (CC50) amounted to 15.1 µM.

With `CC1(c2ccc(Br)s2)CC(c2ccc(Br)s2)=Cc2ncnc(N)c21` (stereo unspecified), the MIC with Escherichia coli was at least 189 µM; against Bacillus subtilis it was at least 163 µM; with Saccharomyces cerevisiae it was at least 197 µM. In the assay on Jurkat, this molecule gave a CC50 of 9.51 µM.

With `CC1(c2ccc(-c3ccccc3)cc2)CC(c2ccc(-c3ccccc3)cc2)=CC(N)=C1C#N` (stereo unspecified), the MIC against Escherichia coli was at least 189 µM; against Bacillus subtilis it was at least 163 µM; in the assay on Saccharomyces cerevisiae, at least 197 µM. The molecule also gave a CC50 with Jurkat of 19.3 µM.

For the molecule `CC1(c2cccs2)CC(c2cccs2)=CC(N)=C1C#N` (stereo unspecified), the minimal inhibitory concentration (MIC) in the assay with Escherichia coli was at least 189 µM; against Bacillus subtilis it was at least 163 µM; in the assay on Saccharomyces cerevisiae it was at least 197 µM. This molecule also gave a CC50 with Jurkat of 172 µM.

In the assay on ScN2a, `N#Cc1c(N)nc(Sc2ccc(Cl)cc2)c(C#N)c1-c1ccco1` registered an Activity of 19 µM.

In the case of `CC1(c2ccc(-c3ccccc3)cc2)CC(c2ccc(-c3ccccc3)cc2)=Cc2ncnc(N)c21` (stereo unspecified), the MIC with Escherichia coli was at least 189 µM; in the assay on Bacillus subtilis, at least 163 µM; in the assay with Saccharomyces cerevisiae it was at least 197 µM. For the same molecule, the CC50 in the assay with Jurkat stood at 10.4 µM.

On to `CC1(c2ccc(Br)s2)CC(c2ccc(Br)s2)=CC(N)=C1C#N` (stereo unspecified), for which the MIC is at least 189 µM against Escherichia coli, at least 163 µM against Bacillus subtilis and at least 197 µM with Saccharomyces cerevisiae. This molecule also came in with a half-maximal cytotoxic concentration (CC50) in the assay on Jurkat of 13.9 µM.

Regarding `CC1(c2ccc(Br)cc2)CC(c2ccc(Br)cc2)=CC(N)=C1C#N` (stereo unspecified), the MIC was at least 189 µM with Escherichia coli, at least 163 µM in the assay on Bacillus subtilis and at least 197 µM against Saccharomyces cerevisiae. Also, the 50% cytotoxic concentration (CC50) in the assay with Jurkat is 20.5 µM.

For the molecule `CC1(c2ccccc2)CC(c2ccccc2)=Cc2ncnc(N)c21` (stereo unspecified), the minimal inhibitory concentration (MIC) was at least 189 µM with Escherichia coli, at least 163 µM with Bacillus subtilis and at least 197 µM in the assay with Saccharomyces cerevisiae. The midpoint of cytotoxicity in the assay on Jurkat, the CC50, lay at 17.6 µM.

As to `N#Cc1c(N)nc(Sc2ccc(Cl)cc2)c(C#N)c1-c1cccs1`, the Activity with ScN2a was found to be 16 µM.

Turning to `N#Cc1c(N)nc(Sc2ccccc2N)c(C#N)c1-c1ccco1`, the Activity in the assay with ScN2a came to 18 µM.

As to `CC1(c2cccs2)CC(c2cccs2)=Cc2ncnc(N)c21` (stereo unspecified), the MIC in the assay with Escherichia coli was at least 189 µM; in the assay with Bacillus subtilis, at least 163 µM; in the assay with Saccharomyces cerevisiae it was at least 197 µM. The molecule further had a cytotoxic concentration (CC50) in the assay on Jurkat of 15.4 µM.

Regarding `CCCCCCC1=Cc2ncnc(N)c2C(C)(CCCCCC)C1` (stereo unspecified), the MIC against Escherichia coli was at least 189 µM; against Bacillus subtilis, at least 163 µM; in the assay with Saccharomyces cerevisiae, at least 197 µM. The same molecule yielded a cytotoxic concentration (CC50) with Jurkat of 12.6 µM.

As for `CC1(c2ccc(F)cc2)CC(c2ccc(F)cc2)=CC(N)=C1C#N` (stereo unspecified), the minimal inhibitory concentration (MIC) against Escherichia coli is at least 189 µM; in the assay with Bacillus subtilis it was at least 163 µM; in the assay on Saccharomyces cerevisiae it was at least 197 µM. In the assay with Jurkat, this molecule returned a cytotoxic concentration (CC50) of 19.4 µM.

For `CC1(c2ccc(Br)cc2)CC(c2ccc(Br)cc2)=Cc2ncnc(N)c21` (stereo unspecified), the minimal inhibitory concentration (MIC) in the assay with Escherichia coli was at least 189 µM; in the assay on Bacillus subtilis, at least 163 µM; in the assay on Saccharomyces cerevisiae, at least 197 µM. The CC50 in the assay with Jurkat stood at 12.7 µM.

`N#Cc1c(N)nc(Sc2ccc(Cl)cc2)c(C#N)c1-c1ccccc1`: in the assay with ScN2a, the Activity was determined as 35 µM.

As for `CC1(c2ccc3ccccc3c2)CC(c2ccc3ccccc3c2)=Cc2ncnc(N)c21` (stereo unspecified), the MIC in the assay with Escherichia coli was at least 189 µM; against Bacillus subtilis, at least 163 µM; with Saccharomyces cerevisiae it was at least 197 µM. The molecule further had a CC50 in the assay with Jurkat of 9.37 µM.

On to `CC1(c2ccc(F)cc2)CC(c2ccc(F)cc2)=Cc2ncnc(N)c21` (stereo unspecified), for which the values for the MIC in the assay with Escherichia coli, against Bacillus subtilis and against Saccharomyces cerevisiae were at least 189 µM, at least 163 µM and at least 197 µM, respectively. In addition, it took 3.24 µM to reach half-maximal cytotoxicity in the assay with Jurkat (CC50).

Turning to `CCCCCCC1=CC(N)=C(C#N)C(C)(CCCCCC)C1` (stereo unspecified), the MIC is at least 189 µM with Escherichia coli, at least 163 µM in the assay on Bacillus subtilis and at least 197 µM against Saccharomyces cerevisiae. In addition, the 50% cytotoxic concentration (CC50) in the assay on Jurkat came out at 46.8 µM.
